≈ marks a conversion by molar mass, not a printed value. Read-outs that look alike come from different tables or passages of the source. Residues, ends and D or L forms follow the SMILES beside them.
Columns and labels:
[1] = tested on: Human liver cancer BEL7404 tumor model; assay type: in vivo; settings: for Tumor inhibitor rate (%): BEL7404, day 21, polypeptides 15 mg/kg sc 2 times per day 21 days, endostatin/endostar 50 mg/kg sc, CTX 30 mg/kg ip 7 days
Method: In vitro cultured tumor cells in exponential phase and in good state were formulated to a 100 μl cell suspension containing 5×10^6 tumor cells. The suspension was subcutaneously inoculated to nude mice. Well-grown solid tumors were obtained 15 days later and cut into uniform pieces of about 3 mm under sterile condition. Each nude mouse was inoculated by one piece through a trocar. Mice were re-grouped according the tumor size 10-14 days after inoculation and animals having too large and too small tumor were excluded from the test. The average tumor volume for each group was basically identical. Test drugs were administered to each group according to the experimental protocol. The major axis (a) and minor axis (b) of the tumor were measured twice a week. Animals were sacrificed at the end of the test. The tumor was taken out, weighed and photos were taken. Tumor volume (TV)=½×a×b^2; Relative tumor volume (RTV)=Vt/Vo, wherein Vo is the tumor volume measured before grouping (one day before administration of the test drug), and Vt is the tumor volume measured at each time. Tumor inhibition rate (%)=(1−T/C)×100%, wherein T is the average tumor volume of the treatment group and C is the average tumor volume of the negative control group.
The amino acid sequence of recombination endostatin (“endostatin”) was set forth in SEQ ID NO: 1, and the amino acid sequence of the marketed drug Endostar (“endostar”) was set forth in SEQ ID NO: 10. Human liver cancer BEL7404 tumor model was constructed according to the method described in Example 10. The test contained 6 groups, with 6 animals in each group, except for the negative control group which contained 9 animals. The molar dose of the polypeptides was basically equal to the molar dose of endostatin. The results are shown in FIGS. 11a and 11b and the following Table.

[2] = tested on: tumor cell HepG2; assay type: cell-based
Method: (§1) Inhibition of cell growth was detected by a MTT method, which is based on the principle that succinate dehydrogenase in the mitochondria of the live cells could reduce the exogenous MTT (3-(4,5-dimethyl-2-thiazolyl)-2,5-diphenyl-tetrazolium bromide) to a […] Formazan which is a blue-violet crystal, and precipitates in the cells, while the death cells could not reduce MTT. DMSO could dissolve Formazan in the cells. Absorbance value of the solution was determined at 490/570 nm by microplate reader, which could indirectly indicate the amount of the live cells. The amount of the crystal from MTT is proportional to the amount of the cells within a certain range of cell number. The supernate from the HUVEC or tumor cells in exponential phase was removed and the cells were washed by PBS once. 1 ml 0.25% trypsin (4° C.) was added for digestion at 37° C. for 2 min. Then the supernate was added for neutralization and the cells were dispersed to form a suspension and the suspension was centrifuged at 1000 rpm for 3 min. The supernate was removed and 5 ml culture mediums were added for resuspension. Cells were inoculated in a 48-well plate by 500 ul/well at the concentration of 3×10^4/ml and then incubated under 5% CO2, 37° C. for 24 hours. The supernate was removed and a culture medium containing polypeptide (Zn^2+ in the culture medium was present at the concentration of 17.39 μmol/L) was added for further incubation for 48 hours. Supernate in each well was carefully removed. The well was gently washed by PBS once in an amount of 450 μl/well. 450 μl MTT culture mediums were added into each well for further cultivation for 4 hours. The supernate was carefully discarded. DMSO was added in an amount of 450 μl/well and then the plate was placed in a shaking bed for oscillation for 10 min in dark. 150 μl supernates were transferred to a 96-well ELISA plate and absorbance value of each well was detected at 490 nm and 570 nm by the microplate reader.

[3] = tested on: Human Umbilical Vein Endothelial Cell (HUVEC); assay type: cell-based; settings: for biological activity compared with P2: inhibition of HUVEC and HepG2
Method: 20 cm umbilical cord adjacent to fetus was taken, cleaned by washing, ligated at both ends, placed into 150 ml preservation solutions for umbilical cord, and stored in a 4° C. refrigerator for digestion for 6 hours. The umbilical cord was inspected to remove the damaged portion. The umbilical vein was thoroughly cleaned by washing and then 10 ml collagenase solution was injected. Then the umbilical vein was transferred to a 37° C. incubator for digestion for 15 minutes. The umbilical cord was removed and the digested solution was recovered. The digested solution was washed by PBS and centrifuged. After centrifugation, the cells were culture by re-suspension.
as §1

O=P1(N(CCCl)CCCl)NCCCO1 (centres unmarked) [CTX, Cyclophosphamide, reference compound]
Tumor inhibitor rate (%) [1]: 68.0%
toxic reaction ([1]; BEL7404 model, same regimens): typical chemotherapeutic toxic side effect

CC[C@H](C)[C@H](NC(=O)CNC(=O)[C@H](CCCNC(=N)N)NC(=O)[C@H](CCSC)NC(=O)CNC(=O)CNC(=O)[C@H](CO)NC(=O)[C@H](CC(C)C)NC(=O)[C@H](CC(N)=O)NC(=O)[C@H](CO)NC(=O)[C@H](CC(N)=O)NC(=O)[C@H](CC(C)C)NC(=O)[C@H](C)NC(=O)[C@@H](NC(=O)[C@H](CC(C)C)NC(=O)[C@H](Cc1c[nH]cn1)NC(=O)[C@H](CC(C)C)NC(=O)[C@@H](NC(=O)[C@@H]1CCCN1C(=O)[C@H](CCC(N)=O)NC(=O)[C@H](Cc1ccccc1)NC(=O)[C@H](CC(=O)O)NC(=O)[C@H](CCCNC(=N)N)NC(=O)[C@H](Cc1c[nH]cn1)NC(=O)[C@@H](NC(=O)[C@H](Cc1c[nH]cn1)NC(C)=O)[C@@H](C)O)C(C)C)C(C)C)C(=O)N[C@@H](CCCNC(=N)N)C(=O)NCC(=O)N[C@@H](C)C(=O)N[C@@H](CC(=O)O)C(N)=O [Polypeptide P2T2N18] (Ac-HTHRDFQPVLHLVALNSNLSGGMRGIRGAD-NH2)
IC50 (ug/ml) HepG2 [2]: 187.9 µg/mL (≈ 56.8 µM)
Cell Survival (%), 1 mg/ml of polypeptide, HepG2 [2]; 1: 7%
IC50 (ug/ml) HUVEC [3]: 71.4 µg/mL (≈ 21.6 µM)
Cell Survival (%), 1 mg/ml of polypeptide, HUVEC [3]: 3%
reduction of IC50 concentration as compared to that of P2 ([3]; HUVEC and HepG2): about 10 folds
biological activity compared with P2 [3]: obviously higher than that of P2

CC[C@H](C)[C@H](NC(=O)CNC(=O)[C@H](CCCNC(=N)N)NC(=O)[C@H](CCSC)NC(=O)CNC(=O)CNC(=O)[C@H](CO)NC(=O)[C@H](CC(C)C)NC(=O)[C@@H]1CCCN1C(=O)[C@H](CO)NC(=O)[C@H](CC(N)=O)NC(=O)[C@H](CC(C)C)NC(=O)[C@H](C)NC(=O)[C@@H](NC(=O)[C@H](CC(C)C)NC(=O)[C@H](Cc1c[nH]cn1)NC(=O)[C@H](CC(C)C)NC(=O)[C@@H](NC(=O)[C@@H]1CCCN1C(=O)[C@H](CCC(N)=O)NC(=O)[C@H](Cc1ccccc1)NC(=O)[C@H](CC(=O)O)NC(=O)[C@H](CCCNC(=N)N)NC(=O)[C@H](Cc1c[nH]cn1)NC(=O)[C@@H](NC(=O)[C@H](Cc1c[nH]cn1)NC(C)=O)[C@@H](C)O)C(C)C)C(C)C)C(=O)N[C@@H](CCCNC(=N)N)C(=O)NCC(=O)N[C@@H](C)C(=O)N[C@@H](CC(=O)O)C(N)=O [Polypeptide P2T2] (Ac-HTHRDFQPVLHLVALNSPLSGGMRGIRGAD-NH2)
IC50 (ug/ml) HepG2 [2]: 2169.6 µg/mL (≈ 659 µM)
Cell Survival (%), 1 mg/ml of polypeptide, HepG2 [2]; 1: 55%
IC50 (ug/ml) HUVEC [3]: 1506.1 µg/mL (≈ 457 µM)
Cell Survival (%), 1 mg/ml of polypeptide, HUVEC [3]: 46%
biological activity compared with P2 [3]: lower biological activity than P2

B1: endostatin: Recombinant human endostatin, SEQ ID NO: 1, commercially available (protein, listed as Homo sapiens)
chain: HSHRDFQPVLHLVALNSPLSGGMRGIRGADFQCFQQARAVGLAGTFRAFLSSRLQDLYSIVRRADRAAVPIVNLKDELLFPSWEALFSGSEGPLKPGARIFSFDGKDVLRHPTWPQKSVWHGSDPNGRRLTESYCETWRTEAPSATGQASSLLGGRLLGQSAASCHHAYIVLCIENSFMTASK
IC50 (ug/ml) HepG2 [2]: 2245.4 µg/mL
Cell Survival (%), 1 mg/ml of polypeptide, HepG2 ([2]; 1 mg/ml): 64%
Tumor inhibitor rate (%) [1]: 41.2%
Cell Survival (%), 1 mg/ml of polypeptide, HUVEC [3]: 70%

B2: endostar: marketed recombinant human endostatin drug, SEQ ID NO: 10 (protein)
chain: MGGSHHHHHHSHRDFQPVLHLVALNAPLSGGMRGIRGADFQCFQQARAVGLAGTFRAFLSSRLQDLYSIVRRADRAAVPIVNLKDELLFPSWEALFSGSEGPLKPGARIFSFDGKDVLRHPTWPQKSVWHGSDPNGRRLTESYCETWRTEAPSATGQASSLLGGRLLGQSAASCHHAYIVLCIENSFMTASK
modifications: Recombinant human endostatin drug, endostar
Cell Survival (%), 1 mg/ml of polypeptide, HepG2 ([2]; 1 mg/ml): 91%
Tumor inhibitor rate (%) [1]: 28.5%
Cell Survival (%), 1 mg/ml of polypeptide, HUVEC [3]: 82%

Reference: patent publication US10351613B2, “Polypeptide for inhibition of tumor” (G-Bio Pharma Tech Co., Ltd., priority 2015, dated 2019)
